The structures appear in SMILES notation. Some results are limits rather than exact numbers.

In one test the target is T1, FSHR (Homo sapiens, UniProt P23945).
T1 construct: expressed in transfected cells; host or cells: CHO (Cho-FSHR-LUC-1-1-43)
T1 sequence (P23945 18-695): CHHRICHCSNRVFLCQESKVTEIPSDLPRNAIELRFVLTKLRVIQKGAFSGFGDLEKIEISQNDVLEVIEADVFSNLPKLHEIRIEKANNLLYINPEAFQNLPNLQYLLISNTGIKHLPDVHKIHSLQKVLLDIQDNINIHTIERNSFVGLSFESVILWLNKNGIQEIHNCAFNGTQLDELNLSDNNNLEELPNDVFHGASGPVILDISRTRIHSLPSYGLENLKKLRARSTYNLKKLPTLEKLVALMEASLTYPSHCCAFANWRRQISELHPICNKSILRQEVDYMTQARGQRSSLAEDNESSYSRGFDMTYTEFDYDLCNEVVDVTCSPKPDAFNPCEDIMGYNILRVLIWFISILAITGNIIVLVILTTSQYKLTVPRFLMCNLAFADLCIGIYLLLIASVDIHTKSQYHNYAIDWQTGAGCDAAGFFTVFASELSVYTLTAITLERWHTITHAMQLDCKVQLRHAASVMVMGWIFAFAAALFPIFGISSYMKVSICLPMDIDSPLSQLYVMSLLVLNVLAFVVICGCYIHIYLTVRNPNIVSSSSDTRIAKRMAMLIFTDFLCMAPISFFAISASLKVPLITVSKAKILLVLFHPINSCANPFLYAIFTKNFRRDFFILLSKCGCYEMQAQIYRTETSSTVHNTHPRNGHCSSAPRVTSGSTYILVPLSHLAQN
The test can be described thus: EC50 of Cyclic AMP Production in CHO FSHR Cells+EC20 FSH (Assay A). The format is cell-based. Particulars: for EC50: cAMP HTRF. As for the experimental part: Example 17: EC50 of Cyclic AMP Production in CHO FSHR Cells+EC20 FSH (Assay A)
2500 Cho-FSHR-LUC-1-1-43 cells were plated per well in 5 μl of phenol red free DMEM/F12+1% FBS. Cells were plated in 384 well, solid white low volume plates (Greiner 784075) by Multidrop. Cells were assayed by adding 100 μl of 2×EC20 FSH/IBMX in DMEM/F12+0.1% BSA) by Multidrop to 2 μl of test compound stamped in 384 well plates (compounds are diluted 1:50). The final FSH concentration was […], and the final IBMX concentration was 200 μM. The compound plate map was as follows: Column 1: 2 μl of DMSO; Column 2: 2 μl of DMSO; Columns 3-12 and 13-24: 2 μl of test compound, diluted 1:4 in 100% DMSO, or 2 μl of FSH, diluted 1:4 in DMEM/F12+0.1% BSA. The starting concentration for FSH was 50 nM (final concentration was 0.5 nM). Furthermore, Column 23 contained 2 μl of EC100 FSH reference (100×) (diluted in DMEM/F12+0.1% BSA) at a final concentration of 0.5 nM, and Column 24 contained 2 μl of 1 mM AS707664/2 reference compound 2.5 μl of compound+EC20 FSH mixture were transferred to cell plates (1:2 dilution into 5 μl of cell media) The plates were incubated at 37° C. for 1 h. 10 μl of mixed HTRF (CisBio #62AM4PEC) reagents were added per well and incubated at room temperature for 1 h. The plates were read on Envision using the cAMP HTRF—low volume 384 well protocol. The readout was the calculated fluorescence ratio (665 nm/620 nm). Values given in percent (%) indicate the percental effect (response) at a certain concentration of agonist relative to the maximum response of the FSH standard.
A general note: TR-FRET usually uses a lanthanide donor and a delayed reading to cut background.

In the next test the test system is Rat Granulosa. The test can be described thus: Rat Granulosa EC50 FSH (Assay B). The conditions noted are these: rat granulosa cells. Format: cell-based. As for the experimental part: Example 18: Rat Granulosa EC50 FSH (Assay B)
The assay was performed pursuant to the teaching of Yanofsky et al. (2006) Allosteric activation of the follicle-stimulating hormone (FSH) receptor by selective, nonpeptide agonists. JBC 281(19): 13226-13233, which is incorporated by reference in the disclosure of the invention.

As usually defined, the EC50 is the concentration at which the effect is half-maximal. At FSHR, `Cc1ccccc1N1CCN(c2c(NC(=O)c3coc(C4CC4)n3)cc(C(=O)NCCCN3CCCC3=O)cc2C(F)(F)F)CC1` had an EC50 of 1000 to 5000 nM. Take `Cc1ccccc1N1CCN(c2cc(Cl)c(C(=O)NCCCN3CCCC3=O)cc2NC(=O)c2coc(C3CC3)n2)CC1`: the EC50 was < 100 nM on FSHR and 100 to 1000 nM with Rat Granulosa.

As for `Cc1ccccc1N1CCN(c2c(NC(=O)c3ccco3)cc(C(=O)NCCCN3CCCC3=O)cc2C(F)(F)F)CC1`, the Emax at 3 µM on FSHR (@ 3 μM, read-out: Assay A: percental effect (response) relative to the maximum response of the FSH standard) was 39%.

`COc1cc(N2CCN(c3ccccc3C)CC2)c(NC(=O)c2coc(C3CC3)n2)cc1C(=O)NCCCN1CCCC1=O`: the EC50 on FSHR was < 100 nM; with Rat Granulosa, 1000 to 5000 nM. For the compound `Cc1ccccc1N1CCN(c2cc(O)c(C(=O)NCCCN3CCCC3=O)cc2NC(=O)c2coc(C3CC3)n2)CC1`, the EC50 on FSHR fell in the range of 100 to 1000 nM. On to `Cc1ccccc1N1CCN(c2cc3c(cc2NC(=O)c2coc(C4CC4)n2)C(=O)N(CCCN2CCCC2=O)CC3)CC1`, for which the EC50 on FSHR is < 100 nM. The “Assay B: percental effect (response)” value with Rat Granulosa (@ 5 μM) was determined as 133% @ 5 μM. `Cc1ccccc1N1CCN(c2cc(F)c(C(=O)NCCCN3CCCC3=O)cc2NC(=O)c2coc(C3CC3)n2)CC1` returned an EC50 at FSHR of 100 to 1000 nM. At FSHR, `Cc1ccc(C)c(N2CCN(c3cc(Cl)c(C(=O)NCCCN4CCCC4=O)cc3NC(=O)c3coc(C4CC4)n3)CC2)c1` had an EC50 of 100 to 1000 nM. The same measure, in the same setting: to `Cc1ccc(C)c(N2CCN(c3cc(Cl)c(C(=O)NCc4cccc(CN(C)C)c4)cc3NC(=O)c3coc(C4CC4)n3)CC2)c1` belongs 1000 to 5000 nM.

Compound `Cc1ccccc1N1CCN(c2cc(C3CC3)c(C(=O)NCCCN3CCCC3=O)cc2NC(=O)c2ccco2)CC1` gave an EC50 at FSHR of 1000 to 5000 nM. On FSHR, `Cc1ccccc1N1CCN(c2cc(C3CC3)c(C(=O)NCCCN3CCCC3=O)cc2NC(=O)c2coc(C3CC3)n2)CC1` came in with an EC50 of 100 to 1000 nM. As to `CCc1cc(N2CCN(c3ccccc3C)CC2)c(NC(=O)c2coc(C3CC3)n2)cc1C(=O)NCCCN1CCCC1=O`, the EC50 on FSHR and in the test on Rat Granulosa was 100 to 1000 nM throughout. For the compound `Cc1ccccc1N1CCN(c2cc(N(C)C)c(C(=O)NCCCN3CCCC3=O)cc2NC(=O)c2ccco2)CC1`, the EC50 at FSHR was 1000 to 5000 nM. `Cc1ccccc1N1CCN(c2cc(N(C)C)c(C(=O)NCCCN3CCCC3=O)cc2NC(=O)c2coc(C3CC3)n2)CC1`: the half-maximal effective concentration (EC50) on FSHR and with Rat Granulosa was 100 to 1000 nM each time. As to `Cc1ccccc1N1CCN(c2cc(Cl)c(C(=O)NCc3cccc(CN(C)C)c3)cc2NC(=O)c2ccco2)CC1`, the EC50 at FSHR was > 5000 nM. Turning to `COCCOc1cc(N2CCN(c3ccccc3C)CC2)c(NC(=O)c2coc(C3CC3)n2)cc1C(=O)NCCCN1CCCC1=O`, the EC50 on FSHR and with Rat Granulosa was 100 to 1000 nM throughout. As to `CCOc1cc(N2CCN(c3ccccc3C)CC2)c(NC(=O)c2coc(C3CC3)n2)cc1C(=O)NCCCN1CCCC1=O`, the EC50 at FSHR is < 100 nM; in the test with Rat Granulosa, 100 to 1000 nM. At FSHR, `CCOc1cc(N2CCN(c3ccccc3C)CC2)c(NC(=O)c2ccco2)cc1C(=O)NCCCN1CCCC1=O` showed an EC50 of 1000 to 5000 nM. Take `Cc1ccc(C(=O)Nc2cc(C(=O)NCCCN3CCOC3=O)c(Cl)cc2N2CCN(c3ccccc3C)CC2)o1`: the EC50 on FSHR fell in the range of 100 to 1000 nM. In the case of `Cc1ccccc1N1CCN(c2cc(Cl)c(C(=O)NCCCN3CCOC3=O)cc2NC(=O)c2coc(C3CC3)n2)CC1`, the results for the EC50 on FSHR and with Rat Granulosa were < 100 nM and 100 to 1000 nM, respectively.

On FSHR, `Cc1ccccc1N1CCN(c2cc3c(cc2NC(=O)c2ccco2)C(=O)N(Cc2cccc(CN(C)C)c2)CC3)CC1` yielded an EC50 of 1000 to 5000 nM.

In turn, `Cc1ccc(F)cc1N1CCN(c2cc(Cl)c(C(=O)NCCCN3CCCC3=O)cc2NC(=O)c2coc(C3CC3)n2)CC1` registered an EC50 at FSHR of 100 to 1000 nM.

On FSHR, `Cc1ccccc1N1CCN(c2cc(C(F)(F)F)c(C(=O)NCCCN3CCCC3=O)cc2NC(=O)c2coc(C3CC3)n2)CC1` showed an EC50 of 100 to 1000 nM. Consider `Cc1cccnc1N1CCN(c2cc(Cl)c(C(=O)NCCCN3CCOC3=O)cc2NC(=O)c2coc(C3CC3)n2)CC1`, for which the EC50 is < 100 nM on FSHR and 100 to 1000 nM with Rat Granulosa. Compound `Cc1ccc(F)cc1N1CCN(c2cc(Cl)c(C(=O)NCc3cccc(CN(C)C)c3)cc2NC(=O)c2ccco2)CC1` yielded an EC50 at FSHR of 1000 to 5000 nM. Take `Cc1ccccc1N1CCN(c2cc(Cl)c(C(=O)NCCCc3nnn(C)n3)cc2NC(=O)c2coc(C3CC3)n2)CC1`: the EC50 at FSHR lay within 100 to 1000 nM; in the test with Rat Granulosa it was 1000 to 5000 nM.

Regarding `Cc1ccccc1N1CCN(c2cc(Cl)c(C(=O)N[C@H]3CCC[C@H](O)[C@@H]3O)cc2NC(=O)c2coc(C3CC3)n2)CC1`, the EC50 at FSHR was < 100 nM; in the test with Rat Granulosa, 1000 to 5000 nM. Turning to `Cc1ccccc1N1CCN(c2cc(Cl)c(C(=O)NCCCc3nnnn3C)cc2NC(=O)c2coc(C3CC3)n2)CC1`, the EC50 at FSHR and in the test on Rat Granulosa was 100 to 1000 nM in each case. On to `Cc1ccccc1N1CCN(c2cc(Cl)c(C(=O)NCCC(C)(C)C(=O)O)cc2NC(=O)c2coc(C3CC3)n2)CC1`, for which the EC50 at FSHR is 100 to 1000 nM. Further, the “Assay B: percental effect (response)” value with Rat Granulosa (@ 25 μM) is given as 46% @ 25 μM. For `Cc1ccccc1N1CCN(c2cc(F)c(C(=O)NCCCN3CCOC3=O)cc2NC(=O)c2coc(C3CC3)n2)CC1`, the EC50 at FSHR lay within 100 to 1000 nM; in the test with Rat Granulosa it was 1000 to 5000 nM. `Cc1ccccc1N1CCN(c2cc(F)c(C(=O)N[C@H]3CCC[C@H](C(=O)OC(C)(C)C)C3)cc2NC(=O)c2coc(C3CC3)n2)CC1` registered an EC50 at FSHR of 100 to 1000 nM. Also, the “Assay B: percental effect (response)” value in the test on Rat Granulosa (concentration not given) turned out to be 39%.

Consider `Cc1ccccc1N1CCN(c2cc3c(cc2NC(=O)c2coc(C4CC4)n2)C(=O)N(CCCN2CCOC2=O)CC3)CC1`, for which the EC50 at FSHR was < 100 nM; in the test on Rat Granulosa, 100 to 1000 nM.

As to `Cc1ccccc1N1CCN(c2cc3c(cc2NC(=O)c2coc(C4CC4)n2)C(=O)N(C2CCC[C@H](O)[C@@H]2O)CC3)CC1` (stereo partly shown), in the test on Rat Granulosa, the EC50 lay within 1000 to 5000 nM.

On to `Cc1ccccc1N1CCN(c2cc3c(cc2NC(=O)c2coc(C4CC4)n2)C(=O)N([C@H]2CCC[C@H](O)[C@@H]2O)CC3)CC1`, for which, at FSHR, the EC50 lay in the range of 100 to 1000 nM. As for `Cc1ccccc1N1CCN(c2cc(F)c(C(=O)N[C@H]3CCC[C@@H](C(=O)OC(C)(C)C)C3)cc2NC(=O)c2coc(C3CC3)n2)CC1`, the EC50 at FSHR is > 5000 nM. For the same compound, the “Assay B: percental effect (response)” value with Rat Granulosa (concentration not given) came to 11%.

`Cc1ccccc1N1CCN(c2cc(F)c(C(=O)N[C@@H]3CCC[C@H](C(=O)OC(C)(C)C)C3)cc2NC(=O)c2coc(C3CC3)n2)CC1`: the EC50 on FSHR is 100 to 1000 nM; in the test with Rat Granulosa it was < 100 nM. In the case of `Cc1ccccc1N1CCN(c2cc(F)c(C(=O)N[C@H]3CCC[C@@H](C(=O)O)C3)cc2NC(=O)c2coc(C3CC3)n2)CC1`, on FSHR, the EC50 is < 100 nM. On FSHR, `COC(=O)[C@@H]1CCC[C@H](NC(=O)c2cc(NC(=O)c3coc(C4CC4)n3)c(N3CCN(c4ccccc4C)CC3)cc2F)C1` came in with an EC50 of 100 to 1000 nM. As for `Cc1ccccc1N1CCN(c2cc(F)c(C(=O)N[C@@H]3CCC[C@H](C(=O)O)C3)cc2NC(=O)c2coc(C3CC3)n2)CC1`, on FSHR, the EC50 was < 100 nM. In the case of `Cc1ccccc1N1CCN(c2cc3ccn(CCCN4CCOC4=O)c(=O)c3cc2NC(=O)c2coc(C3CC3)n2)CC1`, the EC50 on FSHR is < 100 nM.

These data come from patent US10183935B2, “Benzamide derivatives as modulators of the follicle stimulating hormone” (Merck Patent GmbH, priority 2012, dated 2019).
